Data from ChEMBL document CHEMBL4270496, “How to train your inhibitor: Design strategies to overcome resistance to Epidermal Growth Factor Receptor inhibitors” (Eur J Med Chem, 2017).
Each block holds one compound with its values, some of them ahead of it.

What was measured:
NCI-H1975 [1] = test: Antiproliferative activity against human NCI-H1975 cells expressing EGFR T790M/L858R mutant incubated for 72 hrs by MTS assay; format: functional, cell-based; details: NCI-H1975, 72 h
BT-474 = test: Antiproliferative activity against human BT474 cells expressing wild type HER2 incubated for 72 hrs by MTS assay; format: functional, cell-based; details: BT-474, 72 h
MCF7 [2] = test: Antiproliferative activity against human MCF7 cells expressing wild type HER2 incubated for 72 hrs by MTS assay; format: functional, cell-based; details: MCF7, 72 h
A-431 [3] = test: Antiproliferative activity against human A431 cells expressing wild type EGFR incubated for 72 hrs by MTS assay; format: functional, cell-based; details: A-431, 72 h
A549 = test: Antiproliferative activity against human A549 cells; format: functional, cell-based
[4] = biological target: T1, Epidermal growth factor receptor (Homo sapiens, UniProt P00533); test: Inhibition of EGFR (unknown origin)
A-431 [5] = test: Antiproliferative activity against human A431 cells expressing wild type EGFR; format: functional, cell-based
MCF7 [6] = test: Antiproliferative activity against human MCF7 cells expressing wild type HER2; format: functional, cell-based
NCI-H1975 [7] = test: Antiproliferative activity against human NCI-H1975 cells expressing EGFR T790M/L858R mutant; format: functional, cell-based
[8] = biological target: T2, Receptor tyrosine-protein kinase erbB-2 (Homo sapiens, UniProt P04626); test: Inhibition of HER2 (unknown origin)
[9] = biological target: Epidermal growth factor receptor (Homo sapiens, UniProt P00533, T790M/L858R); test: Inhibition of EGFR T790M/L858R mutant (unknown origin)
NCI-N87 = test: Antiproliferative activity against human NCI-N87 cells expressing wild type EGFR and HER2 incubated for 72 hrs by MTS assay; format: functional, cell-based; details: NCI-N87, 72 h
[10] = biological target: Epidermal growth factor receptor (Homo sapiens, UniProt P00533, L858R/T790M); test: Inhibition of human EGFR T790M/L858R mutant expressed in mouse Ba/F3 cells; format: cell-based
[11] = biological target: Epidermal growth factor receptor (Homo sapiens, UniProt P00533, L858R); test: Inhibition of human EGFR L858R mutant expressed in mouse Ba/F3 cells; format: cell-based
[12] = biological target: T2, Receptor tyrosine-protein kinase erbB-2; test: Inhibition of GST-tagged human HER2 catalytic domain expressed in insect cells
[13] = biological target: T1, Epidermal growth factor receptor; test: Inhibition of GST-tagged human EGFR catalytic domain expressed in insect cells
[14] = biological target: Epidermal growth factor receptor (Homo sapiens, UniProt P00533, T790M); test: Inhibition of human EGFR T790M mutant expressed in mouse Ba/F3 cells; format: cell-based
[15] = Antiproliferative activity against human NCI-H1819 cells expressing wild type HER2 incubated for 72 hrs by MTS assay; format: functional, cell-based; details: NCI-H1819, 72 h
SK-BR-3 = test: Antiproliferative activity against human SKBR3 cells expressing wild type HER2 incubated for 72 hrs by MTS assay; format: functional, cell-based; details: SK-BR-3, 72 h
[16] = Antiproliferative activity against human HS27 cells expressing wild type HER2 incubated for 72 hrs by MTS assay; format: cell-based

T2 sequence (P04626 whole entry): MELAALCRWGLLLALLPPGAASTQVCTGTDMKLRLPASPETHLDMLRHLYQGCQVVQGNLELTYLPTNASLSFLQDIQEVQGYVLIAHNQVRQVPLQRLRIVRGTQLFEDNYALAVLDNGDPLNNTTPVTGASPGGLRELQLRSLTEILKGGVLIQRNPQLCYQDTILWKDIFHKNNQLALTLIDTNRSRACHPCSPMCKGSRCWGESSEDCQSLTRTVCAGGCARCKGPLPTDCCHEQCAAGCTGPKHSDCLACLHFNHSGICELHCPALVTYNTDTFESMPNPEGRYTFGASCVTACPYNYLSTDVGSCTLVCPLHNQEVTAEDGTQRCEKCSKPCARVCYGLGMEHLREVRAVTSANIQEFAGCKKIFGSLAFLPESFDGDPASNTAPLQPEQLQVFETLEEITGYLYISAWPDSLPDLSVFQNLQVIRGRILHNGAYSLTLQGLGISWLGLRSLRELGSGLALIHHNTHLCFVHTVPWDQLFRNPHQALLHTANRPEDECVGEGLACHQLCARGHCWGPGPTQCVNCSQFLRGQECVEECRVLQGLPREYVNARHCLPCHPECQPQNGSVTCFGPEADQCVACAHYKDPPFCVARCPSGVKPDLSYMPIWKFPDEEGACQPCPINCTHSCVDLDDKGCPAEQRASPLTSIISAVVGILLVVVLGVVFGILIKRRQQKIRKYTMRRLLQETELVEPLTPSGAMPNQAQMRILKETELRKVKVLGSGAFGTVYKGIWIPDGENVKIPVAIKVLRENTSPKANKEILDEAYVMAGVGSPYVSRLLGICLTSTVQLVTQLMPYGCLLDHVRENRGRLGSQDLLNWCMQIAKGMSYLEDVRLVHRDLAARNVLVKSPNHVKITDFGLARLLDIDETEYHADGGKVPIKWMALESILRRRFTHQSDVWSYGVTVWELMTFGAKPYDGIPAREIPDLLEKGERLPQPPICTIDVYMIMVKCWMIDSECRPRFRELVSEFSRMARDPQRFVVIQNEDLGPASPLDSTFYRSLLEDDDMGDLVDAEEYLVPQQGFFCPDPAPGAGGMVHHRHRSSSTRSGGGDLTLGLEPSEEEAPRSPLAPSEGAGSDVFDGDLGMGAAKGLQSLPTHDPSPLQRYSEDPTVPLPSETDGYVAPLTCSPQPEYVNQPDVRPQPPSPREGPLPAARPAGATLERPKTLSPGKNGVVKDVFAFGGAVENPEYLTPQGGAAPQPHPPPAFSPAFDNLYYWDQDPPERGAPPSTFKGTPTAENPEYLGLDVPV
T1 sequence (P00533 whole entry): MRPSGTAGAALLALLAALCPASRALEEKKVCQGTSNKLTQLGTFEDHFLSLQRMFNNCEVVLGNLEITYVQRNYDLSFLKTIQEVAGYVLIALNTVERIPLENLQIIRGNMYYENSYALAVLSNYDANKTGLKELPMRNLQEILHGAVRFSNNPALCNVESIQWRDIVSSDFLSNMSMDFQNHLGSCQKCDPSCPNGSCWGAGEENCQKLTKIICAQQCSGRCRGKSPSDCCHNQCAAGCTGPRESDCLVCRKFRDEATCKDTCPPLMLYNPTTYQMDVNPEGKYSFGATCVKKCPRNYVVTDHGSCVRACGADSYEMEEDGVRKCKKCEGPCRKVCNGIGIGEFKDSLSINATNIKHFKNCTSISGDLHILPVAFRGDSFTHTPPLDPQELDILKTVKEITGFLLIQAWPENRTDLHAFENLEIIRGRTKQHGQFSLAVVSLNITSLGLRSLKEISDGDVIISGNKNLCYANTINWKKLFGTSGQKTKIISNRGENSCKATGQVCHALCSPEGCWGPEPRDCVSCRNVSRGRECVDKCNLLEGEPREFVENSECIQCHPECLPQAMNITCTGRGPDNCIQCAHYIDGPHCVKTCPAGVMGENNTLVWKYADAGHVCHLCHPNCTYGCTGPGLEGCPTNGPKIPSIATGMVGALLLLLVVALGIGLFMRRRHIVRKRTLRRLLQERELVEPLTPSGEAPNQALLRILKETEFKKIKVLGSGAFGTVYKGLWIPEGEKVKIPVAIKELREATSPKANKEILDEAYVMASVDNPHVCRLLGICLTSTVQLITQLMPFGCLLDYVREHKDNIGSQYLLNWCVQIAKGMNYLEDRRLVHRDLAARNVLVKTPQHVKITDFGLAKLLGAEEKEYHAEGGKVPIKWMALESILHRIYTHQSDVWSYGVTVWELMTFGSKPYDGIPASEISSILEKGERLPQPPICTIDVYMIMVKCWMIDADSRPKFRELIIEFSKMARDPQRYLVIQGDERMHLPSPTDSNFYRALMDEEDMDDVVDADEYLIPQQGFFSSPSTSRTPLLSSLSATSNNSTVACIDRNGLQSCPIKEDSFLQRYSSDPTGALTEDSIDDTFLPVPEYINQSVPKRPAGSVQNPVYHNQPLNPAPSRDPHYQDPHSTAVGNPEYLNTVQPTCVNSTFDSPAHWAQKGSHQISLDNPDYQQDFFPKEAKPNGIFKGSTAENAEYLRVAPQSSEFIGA
Chain of Epidermal growth factor receptor (Homo sapiens, UniProt P00533, L858R/T790M) (P00533 25-1210 T790M/L858R limits assumed): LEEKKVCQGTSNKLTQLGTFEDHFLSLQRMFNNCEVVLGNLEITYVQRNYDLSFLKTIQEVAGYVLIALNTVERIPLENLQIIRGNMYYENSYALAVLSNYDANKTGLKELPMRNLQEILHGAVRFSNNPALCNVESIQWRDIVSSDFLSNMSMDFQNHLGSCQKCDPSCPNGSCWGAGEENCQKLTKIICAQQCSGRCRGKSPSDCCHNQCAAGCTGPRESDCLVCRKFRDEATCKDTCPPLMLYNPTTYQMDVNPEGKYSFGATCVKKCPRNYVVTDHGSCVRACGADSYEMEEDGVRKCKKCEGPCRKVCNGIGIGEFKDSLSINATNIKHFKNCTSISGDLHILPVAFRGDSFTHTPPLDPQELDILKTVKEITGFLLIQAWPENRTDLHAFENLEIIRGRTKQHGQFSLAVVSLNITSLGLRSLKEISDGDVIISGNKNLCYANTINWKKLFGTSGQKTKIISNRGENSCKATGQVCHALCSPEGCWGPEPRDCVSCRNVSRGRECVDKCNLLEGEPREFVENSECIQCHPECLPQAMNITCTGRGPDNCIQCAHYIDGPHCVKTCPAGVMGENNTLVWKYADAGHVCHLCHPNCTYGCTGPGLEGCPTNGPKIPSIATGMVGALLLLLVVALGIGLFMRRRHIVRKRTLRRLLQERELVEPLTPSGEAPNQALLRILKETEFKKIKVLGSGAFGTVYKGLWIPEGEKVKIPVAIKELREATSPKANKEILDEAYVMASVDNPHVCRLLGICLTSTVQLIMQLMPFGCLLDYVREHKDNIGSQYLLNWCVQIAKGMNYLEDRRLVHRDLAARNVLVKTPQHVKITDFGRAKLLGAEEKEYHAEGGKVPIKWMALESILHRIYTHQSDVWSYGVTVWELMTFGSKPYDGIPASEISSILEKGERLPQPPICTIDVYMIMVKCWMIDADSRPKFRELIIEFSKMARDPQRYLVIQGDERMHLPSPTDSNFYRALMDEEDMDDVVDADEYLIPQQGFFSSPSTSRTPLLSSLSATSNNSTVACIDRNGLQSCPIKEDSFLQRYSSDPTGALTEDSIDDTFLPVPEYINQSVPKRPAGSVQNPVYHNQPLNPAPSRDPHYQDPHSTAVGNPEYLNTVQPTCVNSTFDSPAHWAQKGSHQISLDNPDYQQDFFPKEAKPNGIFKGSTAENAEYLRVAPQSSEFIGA
Chain of Epidermal growth factor receptor (Homo sapiens, UniProt P00533, T790M/L858R) (P00533 25-1210 T790M/L858R limits assumed): as above

IC50 (NCI-H1975 [1]): 92 nM | IC50 (BT-474): 54 nM
SMILES: CN(C)C/C=C/C(=O)Nc1cc2c(Nc3ccc(F)c(Cl)c3)ncnc2cc1O[C@@H]1CCOC1

IC50 (MCF7 [2]): 490 nM | IC50 (A-431 [3]): 670 nM | IC50 (A549): 1640 nM
SMILES: O=C(Nc1ccc2ncnc(Nc3cccc(Br)c3)c2c1)c1ccc(C(F)(F)F)cc1O

SMILES: CC(C)(O)CC(=O)NCCc1ccc2ncnc(Nc3ccc(Oc4cccc(C(F)(F)F)c4)c(Cl)c3)c2c1
IC50 [4]: 9.8 nM | IC50 (A-431 [5]): 41 nM | IC50 (MCF7 [6]): 94 nM | IC50 (NCI-H1975 [7]): 127 nM | IC50 [8]: 19 nM | IC50 [9]: 33 nM

IC50 (NCI-H1975 [1]): 34 nM | IC50 (A-431 [3]): 62 nM
SMILES: CCOc1cc2ncnc(Nc3ccc(OCc4cccc(F)c4)c(Cl)c3)c2cc1NC(=O)/C=C/[C@@H]1CCCN1
IC50 (NCI-N87): 47 nM

IC50 [10]: 2.3 nM | IC50 [11]: 0.51 nM | IC50 [12]: 19 nM | IC50 [13]: 1.4 nM | IC50 (A-431 [3]): 100 nM | IC50 [14]: 0.79 nM
SMILES: C=CC(=O)Nc1cc2c(Nc3ccc(F)c(Cl)c3)ncnc2cc1C#CC(C)(C)N1CCN(C)CC1 [AV-412 FREE BASE]

IC50 (NCI-H1975 [1]): 101 nM
SMILES: C=CC(=O)Nc1cc2c(Nc3ccc(F)c(Cl)c3)ncnc2cc1OCCCN1CCOCC1 [CANERTINIB]

IC50 (NCI-H1975 [1]): 440 nM
SMILES: COc1cc2ncnc(Nc3ccc(F)c(Cl)c3)c2cc1NC(=O)/C=C/CN1CCCCC1 [DACOMITINIB ANHYDROUS]
IC50 [15]: 29 nM

IC50 (NCI-H1975 [1]): 5.7 nM | IC50 [12]: 5.3 nM | IC50 (A-431 [3]): 0.9 nM | IC50 (SK-BR-3): 1 nM
SMILES: C=CC(=O)N1CCC(Oc2cc3c(Nc4ccc(Cl)c(Cl)c4F)ncnc3cc2OC)CC1 [POZIOTINIB]
GI50 at 72 h [16]: 3830 nM
